Measured values: ChEMBL document CHEMBL1158828, “(+)-Myristinins A and D from Knema elegans, which inhibit DNA polymerase beta and cleave DNA” (J Nat Prod, 2005)
The source made the active and inactive calls. The calls are words filed in the database; no cut-off is given here.

Assays:
[1] = Potentiation of bleomycin-induced cytotoxicity against mouse P388D1 cells assessed as reduction in cell viability at 9 uM after 6 hrs by trypan blue exclusion test; assay type: functional
[2] = biological target: DNA polymerase beta (Rattus norvegicus) (UniProt P06766); assay: Activity of rat recombinant DNA polymerase beta using variable levels of dNTP concentration
[3] = biological target: T1, DNA polymerase beta (Rattus norvegicus, UniProt P06766); assay: Inhibition of rat recombinant DNA polymerase beta in absence of bovine serum albumin
[4] = system: Escherichia coli; assay: Induction of strand scission activity in Escherichia coli supercoiled pSP64 DNA assessed as relaxation of DNA at 10 µM by agarose gel electrophoresis in presence of Cu2+
[5] = biological target: T1, DNA polymerase beta; assay: Activity of rat recombinant DNA polymerase beta using variable levels of DNA template-primer
[6] = system: Escherichia coli; assay: Induction of strand scission activity in Escherichia coli supercoiled pSP64 DNA assessed as relaxation of DNA after 1 hr by agarose gel electrophoresis in presence of Cu2+
[7] = biological target: T1, DNA polymerase beta; assay: Inhibition of rat recombinant DNA polymerase beta in presence of bovine serum albumin

Kii [2] [µM]	Kis [2] [µM]	IC50 [3] [µM]	Activity [4]	Ki [5] [µM]	Activity [6]	IC50 [7] [µM]	Compound	Activity [1] [%]
4.3	8.2	2.7	Active	11	Dose-dependent effect	12	CCCCCCCCCCCC(=O)c1c(O)cc(O)c([C@@H]2C[C@@H](c3ccc(O)cc3)Oc3cc(O)ccc32)c1O	30
0.8	23	1.2	Active	12	Dose-dependent effect	4.3	O=C(CCCCCCCCc1ccccc1)c1c(O)cc(O)c([C@@H]2C[C@@H](c3ccc(O)cc3)Oc3cc(O)ccc32)c1O	30
